Reference: patent publication US8211606B2, “Coloring compound, yellow toner, sheet for heat-sensitive transfer recording, and ink” (Canon Kabushiki Kaisha, priority 2007, dated 2012)

Columns and labels:
[1] = Solubility check: solubility of coloring compound in chloroform at room temperature; assay type: physicochemical
Description: A solubility test was performed to measure the solubility of a coloring compound in chloroform at room temperature. The solubility was evaluated as described below.
A: 5% or more solubility in chloroform
B: 1% or more and less than 5% solubility in chloroform
C: less than 1% solubility in chloroform
A solubility of 1% or more in chloroform was determined to indicate high compatibility with resin.

[2] = Light resistance evaluation of coloring compound on paper, Sun Tester irradiation (color difference ΔE); assay type: physicochemical; conditions: 765 w/m^2, 50° C., irradiation time 20 hours, on CLC color copy paper
Description: A coloring compound was dissolved in tetrahydrofuran/cyclohexanone (=1/1 (v/v)) to prepare a 0.04 mol/L solution, which was then filtered with a filter (Φ0.2 μm). The prepared coloring compound solution was applied on CLC color copy paper (manufactured by Canon Inc.) by a bar coat method (Bar No. 3) and air-dried overnight. The test paper was then subjected to an irradiation experiment using Sun Tester (XF-180CPS, manufactured by Shimadzu Corporation) under the conditions of an illuminance of 765 w/m^2, a temperature of 50° C. and an irradiation time of 20 hours. The test paper before and after irradiation was analyzed by means of SpectroLino (from Gretag Machbeth). Optical density and chromaticity (L*, a*, b*) were determined on the basis of the L*a*b* color system. Color difference (ΔE) was calculated according to the following equation on the basis of measurements of the color characteristics.
The evaluation was performed as below.
A: The ΔE value is less than 10.
B: The ΔE value is 10 or more and less than 20.
C: The ΔE value is 20 or more.
The ΔE value of less than 20 was determined to indicate good light resistance.

Light Resistance [2] | SMILES | Solubility [1]
A (The ΔE value is less than 10.) | Cc1c(N=Nc2ccccc2[N+](=O)[O-])c(O)n(Cc2ccccc2)c(=O)c1C(N)=O [(16)] | B (1% or more and less than 5% solubility in chloroform)
A (The ΔE value is less than 10.) | CCCCC(CC)Cn1c(O)c(N=Nc2ccc(C(F)(F)F)cc2[N+](=O)[O-])c(C)c(C(N)=O)c1=O (stereo not shown) [(12)] | A (5% or more solubility in chloroform)
A (The ΔE value is less than 10.) | CCCCC(CC)Cn1c(O)c(N=Nc2c(Br)cc(C(F)(F)F)cc2[N+](=O)[O-])c(C)c(C(N)=O)c1=O (stereo not shown) [(10)] | B (1% or more and less than 5% solubility in chloroform)
A (The ΔE value is less than 10.) | CCCCC(CC)Cn1c(O)c(/N=N/c2ccc(C(F)(F)F)cc2[N+](=O)[O-])c(C)c(C(=O)NC(C)(C)C)c1=O (stereo not shown) [Compound (5)] | A (5% or more solubility in chloroform)
C (The ΔE value is 20 or more.) | CCn1c(O)c(/N=N/c2ccccc2[N+](=O)[O-])c(C)c(C(N)=O)c1=O [(2), reference compound] | C (less than 1% solubility in chloroform)
A (The ΔE value is less than 10.) | Cc1c(N=Nc2ccccc2[N+](=O)[O-])c(O)n(-c2ccccc2)c(=O)c1C(N)=O [(15)] | B (1% or more and less than 5% solubility in chloroform)
A (The ΔE value is less than 10.) | CCCCC(CC)Cn1c(O)c(/N=N/c2ccc(F)cc2[N+](=O)[O-])c(C)c(C(N)=O)c1=O (stereo not shown) [Compound (6)] | B (1% or more and less than 5% solubility in chloroform)
A (The ΔE value is less than 10.) | CCCCC(CC)Cn1c(O)c(N=Nc2ccc(C#N)cc2[N+](=O)[O-])c(C)c(C(N)=O)c1=O (stereo not shown) [(11)] | A (5% or more solubility in chloroform)
C (The ΔE value is 20 or more.) | CCCCC(CC)Cn1c(O)c(/N=N/c2ccccc2[N+](=O)[O-])c(C)c(C#N)c1=O (stereo not shown) [Comparative Compound (1), reference compound] | B (1% or more and less than 5% solubility in chloroform)
A (The ΔE value is less than 10.) | CCCCC(CC)Cn1c(O)c(/N=N/c2ccccc2[N+](=O)[O-])c(C)c(C(N)=O)c1=O (stereo not shown) [Compound (4)] | B (1% or more and less than 5% solubility in chloroform)
A (The ΔE value is less than 10.) | CCCCC(C)(CC)NC(=O)c1c(C)c(N=Nc2ccc(C(F)(F)F)cc2[N+](=O)[O-])c(O)[nH]c1=O (stereo not shown) [(14)] | B (1% or more and less than 5% solubility in chloroform)

SMILES | Light Resistance [2] | Solubility [1]
CCCCC(CC)Cn1c(O)c(N=Nc2c([N+](=O)[O-])cc(C(F)(F)F)cc2[N+](=O)[O-])c(C)c(C(N)=O)c1=O (stereo not shown) [(9)] | B (The ΔE value is 10 or more and less than 20.) | B (1% or more and less than 5% solubility in chloroform)
CCCCC(CC)Cn1c(O)c(N=Nc2c([N+](=O)[O-])cc(F)c(F)c2F)c(C)c(C(N)=O)c1=O (stereo not shown) [(8)] | B (The ΔE value is 10 or more and less than 20.) | A (5% or more solubility in chloroform)
CCCCC(CC)Cn1c(O)c(N=Nc2ccc(C(F)(F)F)cc2[N+](=O)[O-])c(C)c(C(=O)NCc2ccccc2)c1=O (stereo not shown) [(18)] | B (The ΔE value is 10 or more and less than 20.) | A (5% or more solubility in chloroform)
CCn1c(O)c(N=Nc2ccc(C(F)(F)F)cc2[N+](=O)[O-])c(-c2ccccc2)c(C(=O)NC(C)(C)C)c1=O [(13)] | B (The ΔE value is 10 or more and less than 20.) | A (5% or more solubility in chloroform)
CCCCC(CC)Cn1c(O)c(N=Nc2cc(F)c(F)cc2[N+](=O)[O-])c(C)c(C(N)=O)c1=O (stereo not shown) [(7)] | B (The ΔE value is 10 or more and less than 20.) | A (5% or more solubility in chloroform)
CCCCC(CC)Cn1c(O)c(N=Nc2ccccc2[N+](=O)[O-])c(C)c(C(=O)NC2CCCC2)c1=O (stereo not shown) [(17)] | B (The ΔE value is 10 or more and less than 20.) | A (5% or more solubility in chloroform)
